Laboratory results from article PMC10794144, “A novel antibiotic class targeting the lipopolysaccharide transporter” (Nature, 2024).
Values after ≈ are worked out from the molar mass of the structure shown. Read-outs that look alike come from different tables or passages of the source.

System: A. baumannii
Experiment: microbe, parasite or virus in culture
Conditions: Acinetobacter baumannii, 100%
How it was run: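 Broth microdilution per CLSI M07/M100, with inocula diluted from a 0.5 McFarland suspension in CAMHB, or LB for A. baylyi. MIC was read as the lowest concentration inhibiting growth by eye or beyond which OD600 stopped decreasing.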

## C[C@@H](O)[C@H]1C(=O)N2C(C(=O)O)=C(S[C@@H]3CN[C@H](C(=O)N(C)C)C3)[C@H](C)[C@H]12 [meropenem, reference compound]
read-out: MIC 100%, ROB08702, Study LGC284879
  MIC: 8 µg/mL (≈ 20.9 µM)
read-out: MIC 100%, ROB08702, Study LGC285582
  MIC: 32 µg/mL (≈ 83.4 µM)
read-out: MIC 100%, ROB08702, Study LGC286210
  MIC: 32 µg/mL (≈ 83.4 µM)
read-out: MIC 100%, ROB08702, Study LGC293598
  MIC: 32 µg/mL (≈ 83.4 µM)
read-out: MIC 100%, ROB08702, Study LGC294355
  MIC: 16 µg/mL (≈ 41.7 µM)
read-out: MIC 100%, ROB08702, Study LGC295147
  MIC: 16 µg/mL (≈ 41.7 µM)
read-out: MIC 100%, ROB08702, Study LGC296813
  MIC: 16 µg/mL (≈ 41.7 µM)
read-out: MIC 100%, ROB08702, Study LGC299544
  MIC: 32 µg/mL (≈ 83.4 µM)
read-out: MIC 100%, ROB08702, Study LGC301026
  MIC: 16 µg/mL (≈ 41.7 µM)
read-out: MIC 100%, ROB08702, Study LGC308175
  MIC: 32 µg/mL (≈ 83.4 µM)
read-out: MIC 100%, ROB08702, Study ROC003
  MIC: 16 µg/mL (≈ 41.7 µM)
read-out: MIC 100%, ROB08702, Study ROC004
  MIC: 32 µg/mL (≈ 83.4 µM)
read-out: MIC 100%, ROB08702, Study ROC005
  MIC: 32 µg/mL (≈ 83.4 µM)
read-out: MIC 100%, ROB08702, Study ROC006
  MIC: 64 µg/mL (≈ 167 µM)
read-out: MIC 100%, ROB08702, Study ROC007
  MIC: 32 µg/mL (≈ 83.4 µM)
read-out: MIC 100%, ROB08702, Study ROC008
  MIC: 16 µg/mL (≈ 41.7 µM)
read-out: MIC 100%, ROB08702, Study ROC009
  MIC: 16 µg/mL (≈ 41.7 µM)
read-out: MIC 100%, ROB08702, Study ROC010
  MIC: 32 µg/mL (≈ 83.4 µM)
read-out: MIC 100%, ROB08702, Study ROC012
  MIC: 32 µg/mL (≈ 83.4 µM)
read-out: MIC 100%, ROB08702, Study ROC013
  MIC: 32 µg/mL (≈ 83.4 µM)
read-out: MIC 100%, ROB08703, Study LGC277937
  MIC: 64 µg/mL (≈ 167 µM)
read-out: MIC 100%, ROB08703, Study LGC279800
  MIC: > 64 µg/mL
read-out: MIC 100%, ROB08703, Study LGC281440
  MIC: 64 µg/mL (≈ 167 µM)
read-out: MIC 100%, ROB08703, Study LGC282160
  MIC: 64 µg/mL (≈ 167 µM)
read-out: MIC 100%, ROB08703, Study LGC282623
  MIC: 64 µg/mL (≈ 167 µM)
read-out: MIC 100%, ROB08703, Study LGC283932
  MIC: > 64 µg/mL
read-out: MIC 100%, ROB08703, Study LGC284200
  MIC: 64 µg/mL (≈ 167 µM)
read-out: MIC 100%, ROB08703, Study LGC284879
  MIC: > 64 µg/mL
read-out: MIC 100%, ROB08703, Study LGC285582
  MIC: > 64 µg/mL
read-out: MIC 100%, ROB08703, Study LGC286210
  MIC: 64 µg/mL (≈ 167 µM)
read-out: MIC 100%, ROB08703, Study LGC293598
  MIC: > 64 µg/mL
read-out: MIC 100%, ROB08703, Study LGC294355
  MIC: 64 µg/mL (≈ 167 µM)
read-out: MIC 100%, ROB08703, Study LGC295147
  MIC: 64 µg/mL (≈ 167 µM)
read-out: MIC 100%, ROB08703, Study LGC296813
  MIC: 64 µg/mL (≈ 167 µM)
read-out: MIC 100%, ROB08703, Study LGC299544
  MIC: > 64 µg/mL
read-out: MIC 100%, ROB08703, Study LGC301026
  MIC: 64 µg/mL (≈ 167 µM)
read-out: MIC 100%, ROB08703, Study LGC308175
  MIC: 64 µg/mL (≈ 167 µM)
read-out: MIC 100%, ROB08703, Study ROC003
  MIC: 64 µg/mL (≈ 167 µM)
read-out: MIC 100%, ROB08703, Study ROC004
  MIC: 64 µg/mL (≈ 167 µM)
read-out: MIC 100%, ROB08703, Study ROC005
  MIC: > 64 µg/mL
read-out: MIC 100%, ROB08703, Study ROC006
  MIC: 64 µg/mL (≈ 167 µM)
read-out: MIC 100%, ROB08703, Study ROC007
  MIC: > 64 µg/mL
read-out: MIC 100%, ROB08703, Study ROC008
  MIC: 64 µg/mL (≈ 167 µM)
read-out: MIC 100%, ROB08703, Study ROC009
  MIC: 64 µg/mL (≈ 167 µM)
read-out: MIC 100%, ROB08703, Study ROC010
  MIC: 64 µg/mL (≈ 167 µM)
read-out: MIC 100%, ROB08703, Study ROC012
  MIC: 64 µg/mL (≈ 167 µM)
read-out: MIC 100%, ROB08703, Study ROC013
  MIC: > 64 µg/mL
read-out: MIC 100%, ROB08704, Study LGC277937
  MIC: 64 µg/mL (≈ 167 µM)
read-out: MIC 100%, ROB08704, Study LGC279800
  MIC: 64 µg/mL (≈ 167 µM)
read-out: MIC 100%, ROB08704, Study LGC281440
  MIC: 32 µg/mL (≈ 83.4 µM)
read-out: MIC 100%, ROB08704, Study LGC282160
  MIC: 32 µg/mL (≈ 83.4 µM)
read-out: MIC 100%, ROB08704, Study LGC282623
  MIC: 64 µg/mL (≈ 167 µM)
read-out: MIC 100%, ROB08704, Study LGC283932
  MIC: 32 µg/mL (≈ 83.4 µM)
read-out: MIC 100%, ROB08704, Study LGC284200
  MIC: 32 µg/mL (≈ 83.4 µM)
read-out: MIC 100%, ROB08704, Study LGC284879
  MIC: 64 µg/mL (≈ 167 µM)
read-out: MIC 100%, ROB08704, Study LGC285582
  MIC: 32 µg/mL (≈ 83.4 µM)
read-out: MIC 100%, ROB08704, Study LGC286210
  MIC: 64 µg/mL (≈ 167 µM)
read-out: MIC 100%, ROB08704, Study LGC293598
  MIC: 32 µg/mL (≈ 83.4 µM)
read-out: MIC 100%, ROB08704, Study LGC294355
  MIC: 64 µg/mL (≈ 167 µM)
read-out: MIC 100%, ROB08704, Study LGC295147
  MIC: 64 µg/mL (≈ 167 µM)
read-out: MIC 100%, ROB08704, Study LGC296813
  MIC: 32 µg/mL (≈ 83.4 µM)
read-out: MIC 100%, ROB08704, Study LGC299544
  MIC: 32 µg/mL (≈ 83.4 µM)
read-out: MIC 100%, ROB08704, Study LGC301026
  MIC: 32 µg/mL (≈ 83.4 µM)
read-out: MIC 100%, ROB08704, Study LGC308175
  MIC: 64 µg/mL (≈ 167 µM)
read-out: MIC 100%, ROB08704, Study ROC003
  MIC: 64 µg/mL (≈ 167 µM)
read-out: MIC 100%, ROB08704, Study ROC004
  MIC: 64 µg/mL (≈ 167 µM)
read-out: MIC 100%, ROB08704, Study ROC005
  MIC: 64 µg/mL (≈ 167 µM)
read-out: MIC 100%, ROB08704, Study ROC006
  MIC: 64 µg/mL (≈ 167 µM)
read-out: MIC 100%, ROB08704, Study ROC007
  MIC: 64 µg/mL (≈ 167 µM)
read-out: MIC 100%, ROB08704, Study ROC008
  MIC: 64 µg/mL (≈ 167 µM)
read-out: MIC 100%, ROB08704, Study ROC009
  MIC: 32 µg/mL (≈ 83.4 µM)
read-out: MIC 100%, ROB08704, Study ROC010
  MIC: 64 µg/mL (≈ 167 µM)
read-out: MIC 100%, ROB08704, Study ROC012
  MIC: 32 µg/mL (≈ 83.4 µM)
read-out: MIC 100%, ROB08704, Study ROC013
  MIC: 64 µg/mL (≈ 167 µM)
read-out: MIC 100%, ROB08705, Study LGC277937
  MIC: 64 µg/mL (≈ 167 µM)
read-out: MIC 100%, ROB08705, Study LGC279800
  MIC: 16 µg/mL (≈ 41.7 µM)
read-out: MIC 100%, ROB08705, Study LGC281440
  MIC: 32 µg/mL (≈ 83.4 µM)
read-out: MIC 100%, ROB08705, Study LGC282160
  MIC: 32 µg/mL (≈ 83.4 µM)
read-out: MIC 100%, ROB08705, Study LGC282623
  MIC: 32 µg/mL (≈ 83.4 µM)
read-out: MIC 100%, ROB08705, Study LGC283932
  MIC: 32 µg/mL (≈ 83.4 µM)
read-out: MIC 100%, ROB08705, Study LGC284200
  MIC: 32 µg/mL (≈ 83.4 µM)
read-out: MIC 100%, ROB08705, Study LGC284879
  MIC: 32 µg/mL (≈ 83.4 µM)
read-out: MIC 100%, ROB08705, Study LGC285582
  MIC: 32 µg/mL (≈ 83.4 µM)
read-out: MIC 100%, ROB08705, Study LGC286210
  MIC: 32 µg/mL (≈ 83.4 µM)
read-out: MIC 100%, ROB08705, Study LGC293598
  MIC: 32 µg/mL (≈ 83.4 µM)
read-out: MIC 100%, ROB08705, Study LGC294355
  MIC: 32 µg/mL (≈ 83.4 µM)
